Data as given in patent publication US20090023186A1, “USE OF VALPROIC ACID FOR ENHANCING PRODUCTION OF RECOMBINANT PROTEINS IN MAMMALIAN CELLS” (EXCELLGENE SA, priority 2007, published 2009).

Legend:
[1] = system: CHO DG44 cells; experiment: Transient IgG expression, batch titer by ELISA, VPA concentration series (Example 1); format: cell-based, Chinese Hamster; details: for Fold increase over control / Batch titer: IgG, day 5 after transfection; for Batch titer: 37° C.
Description: 10 million suspension-adapted HEK293E cells were resuspended in 0.5 ml of Ex-Cell 293 HEK 293 serum-free medium with 4 mmol/l L-glutamine (Cat. No. 14571C-1000 M; Lot No. 6A0093; SAFC Biosciences, Lenexa, Kans., USA, “Ex-Cell” medium; note: “Ex-Cell” medium-as used herein-refers to a medium comprising 4 mmol/l L-glutamine) in a 50-ml filter tube each (TPP AG, Trasadingen, Switzerland; Cat. No. 87050, Lot 20050174). In a separate set, 10 million suspension-adapted CHO DG44 cells were resuspended in 0.5 ml of ProCHO5 serum-free medium with 4 mmol/[…] hypoxanthine and 0.194 g/l thymidine (BioWhittaker (Lonza), Belgium; Cat. No. BE12-[…]; Lot No. 7 MB0040; “ProCHO5” medium; note: “ProCHO5” medium-as used herein-refers to a medium comprising 4 mmol/[…] hypoxanthine and 0.194 g/l thymidine) in a 50-ml filter tube each (TPP AG, Trasadingen, Switzerland; Cat. No. 87050, Lot 20050174). Then 12.5 μg plasmid DNA at a concentration of 1 μg/μl was added in each tube with the following composition 50% (6.25 μg) p-LC (SEQ ID NO: 1) 50% (6.25 μg) p-HC (SEQ ID NO: 3). Plasmid p-LC comprises the genetic information for the production of the light chain of an IgG antibody, plasmid p-HC comprises the genetic information for the production of the heavy chain of an IgG antibody. The particular vector constructs used in the present invention can also be obtained from the inventors. The inventors can be contacted via e-mail at […]. Moreover, commercial services do exist that produce any desired nucleotide sequence even comprising several kilobase pairs including complete expression cassettes in plasmid backgrounds (e.g., Invitrogen, Carlsbad, USA; Geneart, Germany.) Thus, providing the genetic sequence information of the plasmids should enable one of ordinary skill in the art to order the plasmids of the present invention at one of the commercial services listed. After shortly mixing the DNA with the cells by gentle shaking, 25 μg of 25-kd linear polyethyleneimine (“PEI”; Polysciences, Eppelheim, Germany; [2]) were added at a concentration of 1 μg/μl to each of the tubes. After shortly mixing by gentle shaking, the filter tubes containing the cells together with the DNA and PEI were transferred into an orbital shaker (Kühner Shaker Cabinet ISF-4-W, “Kühner shaker”, Kühner AG, Birsfelden, Switzerland), and the cells were incubated for 4 hours at 37° C. in a 5% CO2 atmosphere under shaking at 180 rpm. After that time, 4.5 ml of Ex-Cell medium were added to each of the filter tubes containing HEK 293 cells and 4.5 ml of Pro-CHO5 were added to each of the filter tubes containing CHO DG44 cells. Then, valproic acid was added to each of the tubes at the corresponding final concentration. The cells then were returned into the Kühner shaker and incubated at 37° C. in a 5% CO2 atmosphere under shaking at 180 rpm. […] The ELISA was performed as published in prior art. In short, Goat anti-human kappa light chain IgG (Biosource) was used for coating the ELISA-plates, and with AP-conjugated goat anti-human gamma chain IgG (Biosource) the synthesized IgG1 was detected. NPP was used as a substrate for the alkaline phosphatase. Absorption was measured at 405 nm against 490 nm using a microplate reader (SPECTRAmaxTM340; Molecular Devices, Palo Alto, Calif., USA).

[2] = system: HEK293E cells; experiment: Preferred embodiment: transient IgG expression with p18 and p21 co-transfection, batch titer by ELISA; format: cell-based, Human; details: day 14 after transfection
Description: 20 million suspension-adapted HEK293E cells were resuspended in 1 ml of Ex-Cell 293 HEK 293 serum-free medium with 4 mmol/l L-glutamine (Cat. No. 14571C-[…]; Lot No. 6A0093; SAFC Biosciences, Lenexa, Kans., USA, “Ex-Cell” medium; note: “Ex-Cell” medium-as used herein-refers to a medium comprising 4 mmol/l L-glutamine) in a 50-ml filter tube each (TPP AG, Trasadingen, Switzerland; Cat. No. 87050, Lot 20050174). Then 50 μg plasmid DNA at a concentration of 1 μg/μl was added in each tube with the following composition […] Plasmid p-LC comprises the genetic information for the production of the light chain of an IgG antibody, plasmid p-HC comprises the genetic information for the production of the heavy chain of an IgG antibody, plasmid p-p18 comprises the genetic information for the protein p18, and plasmid p-p21 comprises the genetic information for the protein p21. The particular vector constructs used in the present invention can also be obtained from the inventors. The inventors can be contacted via e-mail at […]. Moreover, commercial services do exist that produce any desired nucleotide sequence even comprising several kilobase pairs including complete expression cassettes in plasmid backgrounds (e.g., Invitrogen, Carlsbad, USA; Geneart, Germany.) Thus, providing the genetic sequence information of the plasmids should enable one of ordinary skill in the art to order the plasmids of the present invention at one of the commercial services listed. After shortly mixing the DNA with the cells by gentle shaking, 100 μg of 25-kd linear polyethyleneimine (“PEI”; Polysciences, Eppelheim, Germany; [2]) were added at a concentration of 1 μg/μl to each of the tubes. After shortly mixing by gentle shaking, the filter tubes containing the cells together with the DNA and PEI were transferred into an orbital shaker (Kühner Shaker Cabinet ISF-4-W, “Kühner shaker”, Kühner AG, Birsfelden, Switzerland), and the cells were incubated for 3 hours at 37° C. in a 5% CO2 atmosphere under shaking at 180 rpm. After that time, 4 ml of Ex-Cell medium were added to each of the filter tubes. […] No. B5887-1G; Sigma-Aldrich Chemie GmbH, Industriestrasse 25, CH-9471 Buchs SG) was added to the corresponding tubes at the corresponding final concentrations. […] The ELISA was performed as published in prior art. In short, Goat anti-human kappa light chain IgG (Biosource) was used for coating the ELISA-plates, and with AP-conjugated goat anti-human gamma chain IgG (Biosource) the synthesized IgG1 was detected. NPP was used as a substrate for the alkaline phosphatase. Absorption was measured at 405 nm against 490 nm using a microplate reader (SPECTRAmaxTM340; Molecular Devices, Palo Alto, Calif., USA).

CCCC(CCC)C(=O)O [VPA, valproic acid]
Fold increase over control ([1]; 0.05 mmol/l final VPA): 1 fold | Batch titer ([1]; 0.05 mmol/l final VPA): 7.4 ± 1.1 mg/L | Fold increase over control ([1]; 0.1 mmol/l final VPA): 1.3 fold | Batch titer ([1]; 0.1 mmol/l final VPA): 10.0 ± 1.5 mg/L | Fold increase over control ([1]; 0.2 mmol/l final VPA): 1.8 fold | Batch titer ([1]; 0.2 mmol/l final VPA): 13.7 ± 1.2 mg/L | Fold increase over control ([1]; 0.5 mmol/l final VPA): 2.1 fold | Batch titer ([1]; 0.5 mmol/l final VPA): 16.3 ± 1.3 mg/L | Fold increase over control ([1]; 1 mmol/l final VPA): 1.9 fold | Batch titer ([1]; 1 mmol/l final VPA): 14.4 ± 1.2 mg/L | Fold increase over control ([1]; 2 mmol/l final VPA): 1.3 fold | Batch titer ([1]; 2 mmol/l final VPA): 10.0 ± 0.9 mg/L | Fold increase over control ([1]; 3 mmol/l final VPA): 1.0 fold | Batch titer ([1]; 3 mmol/l final VPA): 7.4 ± 1.2 mg/L | optimal final concentration ([1]; for batch titer, CHO DG44 cells, day 5): around 0.5 mmol/l | Batch titer ([2]; 3.8 mmol/l VPA, IgG with p18 and p21): 962 ± 73 mg/L | Fold increase over control ([2]; 3.8 mmol/l VPA): 13.2 fold | batch titers compared to adding sodium butyrate [2]: higher
